# Experimental data as given in patent publication US20240189263A1, “DERIVATIZED C60 MOLECULES AND METHODS AND MATERIALS FOR USING DERIVATIZED C60 MOLECULES TO REDUCE RADIATION INJURY” (Mayo Foundation for Medical Education and Research, priority 2021, published 2024).
# Key:
# [1] = tested on: HUVEC cells; experiment: DNA damage, γH2AX foci immunofluorescence, HUVEC; assay type: cell-based
# Procedure: (§1) To test the ability of C60-ser to protect against radiation injury, the level of DNA damage in response to radiation was analyzed by measuring γH2AX. The H2AX protein becomes phosphorylated into γH2AX as a result of DNA double strand breaks. This allows for the visualization and quantification of double strand break foci through immunofluorescence analysis. Cells were plated on 8 chamber slides and incubated overnight before C60-ser treatment. Three sets of slides per cell line (to be irradiated with 0, 0.5, and 1 Gy) were prepared, with the top 4 rows used as a control and the bottom 4 rows incubated with 100 μM C60-ser. Cells were incubated with C60-ser for 2 hours before irradiation with a clinical Proteus One proton machine (Ion Beam Applications, Louvain-la-Neuve, Belgium). A 230 MeV mono-energetic unmodulated broad beam of large field size that encompassed all slides containing the cells was used to deliver the 0.5 and 1 Gy doses. White solid water slabs (IBA Dosimetry, Germany) provided the necessary phantom material to place the cells at the desired 8 cm depth with an LET of approximately 1.7 keV/μm. After irradiation, cells were incubated at 37° C. with 5% CO2 for 30 minutes before washing and fixing the cells with 1% formaldehyde. The cells were permeabilized with 1% NP-40 and incubated with 5% BSA to block unspecific antibody bonding. The cells were then incubated with γH2AX primary antibody followed by a secondary antibody. Mounting media containing DAPI was used before applying cover slips and sealing the samples. Cells were imaged on an Olympus IX71 trinocular inverted fluorescence phase contrast microscope with a 40× objective. The resulting images were analyzed by ImageJ, and the foci were counted.
# [2] = tested on: HUVEC cells; experiment: Seahorse mitochondrial respiration (oxygen consumption rate), HUVEC; assay type: cell-based; conditions: pretreated 2 hours before 1 Gy 230 MeV proton
# Procedure: The oxygen consumption rates were assessed in N2A, HUVEC, NIH3T3, and HepG2 cell lines with a Seahorse XFe96 (Agilent Technologies, Santa Clara, CA, USA). Cells were treated with 0 and 1 Gy of 230 MeV proton irradiation. The control plates were run at about the same time post plating. Each cell line was optimized prior to these experiments, and data was presented normalized to cell number plated. The standard mitochondrial stress test was performed using serial injections of oligomycin (1.5 μM), carbonyl cyanide p-(trifluoromethoxy)phenylhydrazone (FCCP, 1 μM), and rotenone/antimycin A mixture (0.5 μM). After injection of oligomycin, which inhibits ATP synthase (complex V), there was a drop in electron flow through the electron transport chain (ETC) and a resultant drop in oxygen consumption rate (OCR) of the cells. Injection of FCCP collapsed the proton gradient and allowed for uninhibited electron flow through the ETC supercomplexes. […] The reserve respiratory capacity was calculated by subtracting the basal respiratory capacity from the maximal respiratory capacity.
# [3] = tested on: Panc02 tumor on the thigh of C57B16 mice; experiment: Syngeneic mouse model of pancreatic cancer, tumor volume under radiation; assay type: in vivo; conditions: 700 mg/kg per os once 12 hours before first radiation, with capecitabine 350 mg/kg 5 days, 2 Gy x 5 days, 20 days
# Procedure: A syngeneic mouse model of pancreatic cancer (Panc02 growing on the thigh of C57B16 mice) was used to evaluate the effects of C60-ser on in vivo tumors. Mice were treated with 350 mg/kg capecitabine via per os gavage for 5 days 1 hour before radiation (RT+Cape), or capecitabine treatment with a single dose of 700 mg/kg C60-ser via per os gavage once 12 hours before the first dose of radiation (RT+Cape+c60 Ser). Mice were exposed to 2 Gy of radiation (RT) once per day for 5 days. A control group (Cont) without treatment also was exposure to the radiation treatment. Normalized tumor volumes were monitored for 20 days.
# [4] = Dynamic light scattering analysis of C60-ser aggregates; assay type: physicochemical; conditions: for Predominant aggregate sizes: in PBS
# Procedure: Dynamic light scattering (DLS) was used to observe the aggregation process of C60-ser. Dynamic light scattering heatmaps were created by combining multiple normalized particle number weighted distribution (PNWD) plots. The PNWD plots compared the log of the relative scattering intensity versus particle size, at angles of 173°. The refractive index was assumed to be n=1.34, the absorption constant to be k=0.001, and the solution viscosity to be that of water, corrected for temperature (η=0.888 mPa s). Plots were collected with a 0.2° C. interval. Each temperature interval was held constant for more than 45 minutes before performing the next measurement, to ensure the presence of an aggregation equilibrium.
# [5] = tested on: NIH3T3 cells; experiment: Classic clonogenics survival assay of irradiated cells, NIH3T3; assay type: cell-based
# Procedure: (§2) A classic clonogenics assay was performed to further test the ability of C60-ser to protect against radiation damage. After irradiation, a fraction of the cells will undergo radiation-induced death, whereas other cells remain metabolically active and are able to undergo a few cycles of mitosis before meeting their endpoint. Since many cells remain metabolically activity, classic toxicity measurements such as an MTT measurement are not able to catch the full effects of radiation damage. In contrast, a classic clonogenics assay, which plates a known number of cells and tracks development of colonies, is able to track the number of cells that maintain their clonogenicity. With increasing radiation doses, the fraction of cells that maintain clonogenicity decrease. Therefore, a successful radioprotectant is able to increase the number of surviving colonies compared to the control at the same radiation doses.
# (§3) N2A, NIH3T3, and HepG2 cells were plated in 35 mm dishes and treated with 100 μM C60-ser for 2 hours prior to washing with PBS and irradiation at 0, 2, 4, and 6 Gy with a 230 MeV proton beam. Following radiation, a known number of cells were re-plated in six well plates and allowed to grow in culture for 8-14 days to allow for colony formation. To account for cell death with higher radiation doses, a larger number of cells were plated with increasing doses received. […]
# [6] = tested on: HepG2 cells; experiment: DNA damage, γH2AX foci immunofluorescence, HepG2; assay type: cell-based
# Procedure: as §1
# [7] = tested on: N2A cells; experiment: Classic clonogenics survival assay of irradiated cells, N2A; assay type: cell-based
# Procedure: as §2, §3
structure (smiles),measurement,setting,value
"O=C(NC(CO)CO)C1(C(=O)NC(CO)CO)C23c4c5c6c7c8c4-c4c2c2c9c%10c4C4%11c%12c-%10c%10c%13c%14c%12-c%12c(c-7c7c%15c%12C%14%12C(C(=O)NC(CO)CO)(C(=O)NC(CO)CO)C%12%14c%12c%16c%17c%18c(c%12-%15)C7%12C(C(=O)NC(CO)CO)(C(=O)NC(CO)CO)C6%12c6c-5c5c7c(c6-%18)C%176C(C(=O)NC(CO)CO)(C(=O)NC(CO)CO)C6%12c6c-7c(c-2c2c6-c6c%12c-%16c%14c-%13c6C%106C(C(=O)NC(CO)CO)(C(=O)NC(CO)CO)C926)C513)C84C%11(C(=O)NC(CO)CO)C(=O)NC(CO)CO (stereo not drawn) [C60-ser, C60-serinol]",γH2AX foci vs control,[1]; 100 μM 2 hours before 0.5 Gy proton radiation,"trend towards reduction in total foci formed, but it was not statistically significant"
same,γH2AX foci vs control,[1]; 100 μM 2 hours before 1 Gy proton radiation,significant decrease in the number of foci
same,γH2AX foci vs control,"[1]; 100 μM 2 hours, absence of radiation",no significant different in foci expression
same,radiation-induced increase in respiratory capacity,[2],"dampened and, in some cases, reduced to normal or slightly below normal levels"
same,normalized tumor volume vs capecitabine alone,[3],not significantly different in normalized tumor volume
same,Predominant aggregate sizes,"[4]; 0.1 mg/mL, 37 ° C.",260 ± 38 nm
same,Predominant aggregate sizes,"[4]; 10 mg/mL, 4 ° C.",290 ± 73 nm
same,Predominant aggregate sizes,"[4]; 10 mg/mL, 37 ° C.",233 ± 56 nm
same,size of aggregates,[4]; dynamic equilibrium in water,100-2000 nm
same,size of conjugate monomers,[4]; dynamic equilibrium in water,~3 nm
same,diameters of individual molecules,"[4]; initially, when dissolved in water",3-4 nm
same,fraction of surviving cells,"[5]; NIH3T3, 100 μM 2 hours before irradiation",increased the fraction of surviving cells
same,dose enhancement factor (DEF) at 20% surviving fraction,"[5]; NIH3T3, 100 μM 2 hours, 0-6 Gy 230 MeV proton",0.85±0.03
same,γH2AX foci vs control,"[6]; HepG2, 100 μM 2 hours before 0.5 Gy proton radiation","trend towards reduction in total foci formed, but it was not statistically significant"
same,γH2AX foci vs control,"[6]; HepG2, 100 μM 2 hours before 1 Gy proton radiation",significant decrease in the number of foci
same,γH2AX foci vs control,"[6]; HepG2, 100 μM 2 hours, absence of radiation",no significant different in foci expression
same,fraction of surviving cells,[7]; 100 μM 2 hours before irradiation,increased the fraction of surviving cells
same,dose enhancement factor (DEF) at 20% surviving fraction,"[7]; 100 μM 2 hours, 0-6 Gy 230 MeV proton, one set of clonogenics",0.91
